According to patent US7446079B2, “Perfumes for rinse-off systems” (Givaudan Fragrances Corporation, priority 2005, dated 2008):
Read-outs that look alike come from different tables or passages of the source.

Key:
[1] = GC-MS headspace release profile of Tropical Fruit perfume in shampoo, 1/100 dilution in water; type: physicochemical
Method: A 10 gram sample of formulation and fragrance was added to an empty 1000 ml pyrex beaker. This beaker was then filled with 1000 ml of 120 F tap water. Beaker with diluted shampoo sample was then immediately placed into a semi-enclosed plexiglass chamber.
Headspace Sampling: Once beaker was placed into chamber a Carboxan SPME field fiber was held at the top-side opening of the chamber over the beaker containing the sample. […] […] Top of plexiglass chamber was held open for entire 5 minutes of headspace sampling.

[2] = in water, cited from earlier work; for exp ODT (ppb) water: experimental values from the Booleans database

Row | GC Abundance ([1]; headspace at 40 seconds) | GC Abundance ([1]; headspace at 50 seconds) | GC Abundance ([1]; headspace at 10 seconds) | GC Abundance ([1]; headspace at 20 seconds) | GC Abundance ([1]; headspace at 30 seconds) | Structure (SMILES) | ODT (ppb) ([2]; Table 13) | exp ODT (ppb) water [2] | ODT (ppb) ([2]; Table 9) | ODT (ppb) ([2]; Table 11)
1 | 2000 | 9000 |  |  |  | CCCCCCC(C=O)=Cc1ccccc1 [HEXYL CINNAMIC ALDEHYDE] | less than 50 ppb |  |  | 
2 | 1000 | 5000 |  |  |  | CC=CC(=O)C1C(C)=CCCC1(C)C (stereo not drawn) [alpha-DAMASCONE, α-1-(2,6,6-Trimethyl-2-cyclohexen-1-yl)-2-buten-1-one] |  | 1.5 ppb |  | 
3 | 14000 | 14000 |  | 10000 | 14000 | CC(C)=CC1CC(C)CCO1 (stereo not drawn) [ROSE OXIDE (HIGH CIS), Tetrahydro-4-methyl-2-(2-methylpropen-1-yl)pyran] |  | 0.5 ppb |  | 
4 | 10000 | 18000 |  |  | 2000 | CC(=O)C=CC1=C(C)CCCC1(C)C [IONONE BETA PURE, 4-(2,6,6-Trimethyl-1-cyclohexen-1-yl)-3-buten-2-one] | less than 50 ppb | 4-6 ppb | less than 50 ppb | less than 50 ppb
5 | 18000 | 20000 |  | 5000 | 14000 | CC(=O)OC1CCCCC1C(C)(C)C (stereo not shown) [VERDOX] | less than 50 ppb |  | less than 50 ppb | less than 50 ppb

Second part, the molecule before the results:

Row | Structure (SMILES) | GC Abundance ([1]; headspace at 40 seconds) | GC Abundance ([1]; headspace at 50 seconds) | GC Abundance ([1]; headspace at 10 seconds) | GC Abundance ([1]; headspace at 20 seconds) | GC Abundance ([1]; headspace at 30 seconds) | ODT (ppb) ([2]; Table 13) | exp ODT (ppb) water [2] | ODT (ppb) ([2]; Table 9) | ODT (ppb) ([2]; Table 11)
6 | CCOC(=O)C(C)CC (stereo not shown) [Ethyl 2-methylbutyrate] | 2000 | 1500 | 3000 | 3100 | 3100 |  | 0.1-0.3 ppb |  | 
7 | CCCCCC1C(=O)CCC1CC(=O)OC (stereo not shown) [HEDIONE] |  | 4000 |  |  |  | less than 50 ppb |  | less than 50 ppb | less than 50 ppb
8 | CCCC(=O)OCC [ETHYL BUTYRATE] | 2000 | 800 | 2800 | 2800 | 2800 | less than 50 ppb | 1 ppb | less than 50 ppb | less than 50 ppb
9 | CC=CC(=O)C1=C(C)C=CCC1(C)C [DAMASCENONE, 1-(2,6,6-Trimethylcyclohexa-1,3-dienyl)-2-buten-1-one] |  | 1000 |  |  |  |  | 0.002 ppb |  | 
